Active and inactive are the calls of the source. The rule behind the calls is not given here.

We go through nine compounds from ChEMBL document CHEMBL1153613, “Synthesis and reactivity of novel gamma-phosphate modified ATP analogues” (Bioorg Med Chem Lett, 2009).

The experiment deals with Cyclin-dependent kinase 2 (Homo sapiens) (UniProt P24941). The experiment is described as follows: Effect on wild type recombinant CDK2/cyclin E1 assessed as p27kip1 phosphorylation after 1 hr by immunoblot analysis.

With `C=CCNP(=O)(O)OP(=O)(O)OP(=O)(O)OC[C@H]1O[C@@H](n2cnc3c(N)ncnc32)[C@H](O)[C@@H]1O`, the result was Active. On to `[N-]=[N+]=Nc1ccc(NP(=O)(O)OP(=O)(O)OP(=O)(O)OC[C@H]2O[C@@H](n3cnc4c(N)ncnc43)[C@H](O)[C@@H]2O)cc1`, for which the result was Active. Consider `[N-]=[N+]=NCCOCCOCCOCCNP(=O)(O)OP(=O)(O)OP(=O)(O)OC[C@H]1O[C@@H](n2cnc3c(N)ncnc32)[C@H](O)[C@@H]1O`, for which the outcome was Active. In the case of `[N-]=[N+]=NCCOP(=O)(O)OP(=O)(O)OP(=O)(O)OC[C@H]1O[C@@H](n2cnc3c(N)ncnc32)[C@H](O)[C@@H]1O`, the result was Active. On to `C#CCNP(=O)(O)OP(=O)(O)OP(=O)(O)OC[C@H]1O[C@@H](n2cnc3c(N)ncnc32)[C@H](O)[C@@H]1O`, for which the outcome was Active.

For the compound `C#CCCCOP(=O)(O)OP(=O)(O)OP(=O)(O)OC[C@H]1O[C@@H](n2cnc3c(N)ncnc32)[C@H](O)[C@@H]1O`, the outcome was Active. Turning to `[N-]=[N+]=NCCCCCCNP(=O)(O)OP(=O)(O)OP(=O)(O)OC[C@H]1O[C@@H](n2cnc3c(N)ncnc32)[C@H](O)[C@@H]1O`, the result was Active. Consider `C#CCCNP(=O)(O)OP(=O)(O)OP(=O)(O)OC[C@H]1O[C@@H](n2cnc3c(N)ncnc32)[C@H](O)[C@@H]1O`, for which the result was Active. With `C#CCCCNP(=O)(O)OP(=O)(O)OP(=O)(O)OC[C@H]1O[C@@H](n2cnc3c(N)ncnc32)[C@H](O)[C@@H]1O`, the outcome was Active.
